What all share (format): cell-based, Murine
For assay [1], the target named is T1, K2P4.1 (TRAAK) (Mus musculus, UniProt O88454).
T1 construct: expressed in transfected cells; host or cells: Xenopus oocytes
T1 sequence (O88454 1-398): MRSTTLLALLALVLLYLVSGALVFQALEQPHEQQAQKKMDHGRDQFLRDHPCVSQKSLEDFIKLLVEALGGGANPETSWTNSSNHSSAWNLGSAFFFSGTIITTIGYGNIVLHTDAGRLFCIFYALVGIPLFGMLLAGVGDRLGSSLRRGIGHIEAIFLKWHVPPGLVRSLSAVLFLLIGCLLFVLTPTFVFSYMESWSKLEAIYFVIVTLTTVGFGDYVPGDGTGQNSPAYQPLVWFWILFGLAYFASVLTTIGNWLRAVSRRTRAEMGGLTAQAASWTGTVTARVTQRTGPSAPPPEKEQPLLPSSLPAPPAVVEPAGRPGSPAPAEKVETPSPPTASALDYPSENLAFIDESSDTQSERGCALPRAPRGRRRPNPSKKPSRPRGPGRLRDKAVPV
The experiment in a line: Two-electrode voltage clamp, Xenopus oocytes expressing K2P4.1 (TRAAK). Here is the method:
(§1) FIG. 7 ML67-33 is a selective activator of heat- and mechanosensitive K2P channels. a-f, Exemplar I-V curves showing the effect of ML67-33 on a, K2P10.1 (TREK-2), b, K2P4.1 (TRAAK), c, K2P3.1 (TASK-1), d, K2P9.1 (TASK-3), e, K2P5.1 (TASK-2), and f, K2P18.1 (TRESK) measured in Xenopus oocytes in 2 mM [K^+]o pH 7.4. Currents were elicited by a voltage ramp from −150 to 50 mV, from a holding potential of −80 mV. g, Quantification of the effect of ML67-33 on the indicated channels. Data (mean±s.e., n≧6, N≧2) was normalized to basal channel activity and fitted to the Hill equation. […] Error bars indicate s.e., n≧6, N≧2.
(§2) Murine K2P channels were cloned into pGEMHE/pMO {Bagriantsev, 2011}, IRES-GFP (Invitrogen), or pYES2-MET25 (high copy 2μ, URA3) {Minor, 1999} for expression in oocytes, HEK-293T cells, and yeast, respectively, using standard molecular biology procedures, and verified by DNA sequencing.
(§3) Two-electrode voltage clamp recordings were performed from defolliculated stage V-VI Xenopus oocytes 24-48 hours after injection with 0.015-6.0 ng cRNA, using microelectrodes (0.3-3.0 MΩ) filled with 3M KCl. Data was acquired using the GeneClamp 500B (MDS Analytical Technologies) amplifier controlled by the pClamp software (Molecular Devices), and digitized at 1 kHz using Digidata 1332A (MDS Analytical Technologies). […]
In general terms: Two-electrode voltage clamp holds a large cell at a set potential and records current.

Assay [2] has as its target T2, K2P5.1 (TASK-2) (Mus musculus, UniProt F6V9U5).
T2 construct: expressed in transfected cells; host or cells: Xenopus oocytes
T2 sequence (F6V9U5 1-502): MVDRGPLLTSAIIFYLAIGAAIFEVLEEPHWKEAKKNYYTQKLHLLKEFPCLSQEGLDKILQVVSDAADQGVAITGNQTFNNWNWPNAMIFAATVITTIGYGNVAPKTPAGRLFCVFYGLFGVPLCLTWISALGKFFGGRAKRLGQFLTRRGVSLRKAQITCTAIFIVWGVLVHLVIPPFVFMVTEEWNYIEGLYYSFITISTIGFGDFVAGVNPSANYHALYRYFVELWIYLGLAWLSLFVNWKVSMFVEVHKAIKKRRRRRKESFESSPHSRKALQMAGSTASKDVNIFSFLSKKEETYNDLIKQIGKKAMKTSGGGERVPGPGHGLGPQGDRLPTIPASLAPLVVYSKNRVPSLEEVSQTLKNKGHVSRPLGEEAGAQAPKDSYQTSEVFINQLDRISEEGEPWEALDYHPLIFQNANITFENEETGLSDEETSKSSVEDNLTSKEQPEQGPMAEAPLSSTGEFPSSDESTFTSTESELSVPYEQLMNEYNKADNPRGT
Put plainly: Two-electrode voltage clamp, Xenopus oocytes expressing K2P5.1 (TASK-2). As for the experimental part:
as §1, §2, §3

In assay [3] the target is T3, K2P18.1 (TRESK) (Mus musculus, UniProt Q6VV64).
T3 construct: expressed in transfected cells; host or cells: Xenopus oocytes
T3 sequence (Q6VV64 1-394): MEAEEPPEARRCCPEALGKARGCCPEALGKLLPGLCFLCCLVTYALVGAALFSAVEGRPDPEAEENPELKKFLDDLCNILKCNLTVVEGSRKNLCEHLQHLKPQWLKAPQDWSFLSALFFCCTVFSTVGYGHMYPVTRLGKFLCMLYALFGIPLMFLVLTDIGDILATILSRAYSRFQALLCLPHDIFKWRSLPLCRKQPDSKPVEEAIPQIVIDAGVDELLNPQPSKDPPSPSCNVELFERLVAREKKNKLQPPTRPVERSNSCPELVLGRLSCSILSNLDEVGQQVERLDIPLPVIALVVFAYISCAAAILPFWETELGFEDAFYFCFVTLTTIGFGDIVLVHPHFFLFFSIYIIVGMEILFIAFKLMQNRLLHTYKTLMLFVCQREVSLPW
Put plainly: Two-electrode voltage clamp, Xenopus oocytes expressing K2P18.1 (TRESK). As for the experimental part: as §1, §2, §3

Where [4] appears, read: at 100 μM (FIG. 7 legend), ** in Table 1.

Each structure is given as a SMILES string. “And” between values parts separate entries of the source, which are not always exact repeats. Equal entries are not always repeated.

A word on the EC50: it is the concentration giving half of the maximal effect.

`CC1(C)c2cc(Cl)ccc2N(CCc2nnn[nH]2)c2ccc(Cl)cc21` [ML67-33, 2,7-dichloro-9,9-dimethyl-10-[2-(1H-tetrazol-5-yl)ethyl]acridine] returned a half-maximal effective concentration (EC50) in assay [1] (Xenopus oocytes, 2 mM [K+]o pH 7.4) of 27.3 ± 1.2 µM. For the same compound, the “Emax (fold)” value in assay [1] (setting [4]) was 14.7±1.1 fold and 14.7±1.12 fold; in assay [2] (setting [4]) it was 1.7±0.3 fold; in assay [3] (setting [4]), 0.9±0.1 fold. Further, the “functional effect (in words)” value in assay [2] (applied at 100 μM) and in assay [3] (applied at 100 μM) was “little or no functional effects” in each case.

The record behind these values is patent US9862684B2, “Modulation of K2P channels” (The Regents of the University of California, priority 2013, dated 2018).
